Data on 2 compounds can be found in US12071436B2, “Anti-parasitic compounds and uses thereof” (Memorial Sloan-Kettering Cancer Center, priority 2016, dated 2024).

The structures appear in SMILES notation. Read-outs that look alike come from different tables or passages of the source.

A short description of data set [1]: Hepatic microsomal stability, 1 mg/mL hepatic microsomes. Format: in vitro ADME. The settings on record: C57BL/6, mouse, liver microsomes, pH 7.4, 1 μM compound, NADPH, read-out: microsomal stability (t1/2, mouse): 1 mg/mL hepatic microsomes. The procedure:
To evaluate the hepatic microsomal stability of selected compounds, 1 μM of each selected compound was incubated with 1 mg/mL hepatic microsomes in 100 mM KPi, pH 7.4. The microsomes were obtained from C57BL/6 mice. The reaction was initiated by adding NADPH (1 mM final concentration). Aliquots were removed at 0, 5, 10, 20, 40, and 60 minutes and added to acetonitrile (5× v:v) to stop the reaction and precipitate the protein. NADPH dependence of the reaction is evaluated with —NADPH samples. At the end of the assay, the samples were centrifuged through a Millipore Multiscreen Solvinter 0.45 micron low binding PTFE hydrophilic filter plate and analyzed by LC-MS/MS. Data was log transformed and represented as half-life.

The subject of data set [2] is Trypanosoma cruzi parasites. Kind of data set: Trypanosoma cruzi in vitro IC50 (structure-activity analyses). The following applies: infection with Trypanosoma cruzi parasites for 72 hours and treatment with the compound for 72 hours. In kind it is cell-based. How it is done: Select compounds described herein were evaluated for structure-activity analyses in vitro.

Data set [3] can be described thus: Plasma pharmacokinetics in female BALB/c mice (ip and po). Format: in vivo, mouse. The settings on record: 50 mg/kg; for bioavailability / AUC / Cmax / half-life: female, BALB/c, mice; for bioavailability / AUC / Cmax / half-life / Tmax: mouse, plasma; for bioavailability: oral, read-out: Relative Bioavailability, Frel (po/ip); for Tmax / plasma concentrations quantifiable till: female BALB/c mice. The procedure:
To evaluate the plasma pharmacokinetics of selected compounds, a group of eighteen female mice were administered divided into two groups; Group 1 (intraperitoneal (i.p.)) and Group 2 (oral administration (p.o.)) with compound 21 or compound 37 solution formulation at a dose of 50 mg/kg by both the routes in 5% NMP, 5% Solutol and 90% Normal saline. Blood samples (approximately […]) were collected from retro orbital plexus of each mouse under light isoflurane anesthesia such that the samples were obtained at 0.083, 0.25, 0.5, 1, 2, 4, 8, 12 and 24 hours (i.p.); and pre-dose, 0.25, 0.5, 1, 2, 4, 8, 12 and 24 hour (p.o.). The blood samples were collected from a set of three mice at each time point in labeled micro centrifuge tube containing K2EDTA as anticoagulant. Plasma samples were separated by centrifugation at 4000 rpm for 10 min and stored below −70° C. until bioanalysis. After collection of blood sample, animals were humanely euthanized by carbon dioxide asphyxiation to collect liver and heart from Group 1 and Group 2 at 1, 8 and 24 hours. The collected tissues were rinsed in PBS and were homogenized with cold phosphate buffer saline (pH 7.4) of nine times the weight of liver and two times the weight of heart tissue and stored below −70° C. until bio-analysis. Total volume was ten and three times the tissue weights of liver and heart, respectively. All samples were processed for analysis by protein precipitation using acetonitrile and analyzed with fit-for-purpose LC-MS/MS method (LLOQ: 1.01 ng/mL for plasma; 20.20 ng/g for liver and 6.06 ng/g for heart tissue). […] Exemplary results for compounds 21 (2015-FoleyC-021) and 37 (2015-FoleyC-037) are shown above in Table 2.

A short description of data set [4]: Parallel artificial membrane permeability assay (PAMPA), commercial kit. In kind it is in vitro ADME. The settings on record: PBS, room temperature, read-out: Parallel artificial membrane permeability assay (PAMPA) Permeability (log Pe [cm/s]) (converted). How it is done:
To evaluate the Parallel Artificial Membrane Permeability Assay (PAMPA) of selected compounds, an assessment of permeability was done using a commercial PAMPA kit. Selected compounds were evaluated over a range of concentrations by 300 μl of PBS containing the compound to the bottom donor plate. Selected compounds were from DMSO stocks and the final DMSO concentration in the donor wells was one percent. 200 μl of blank PBS was added to the top receiver plate. The plates were allowed to incubate at room temperature. After 5 hours, aliquots were taken from the donor and receiver plates and the concentration of drug was determined. Compound permeability was calculated using the equation [formula] where Pe is expressed in units of cm/s, CA(t) is drug concentration in the acceptor at time t, VD is donor well volume, VA is acceptor well volume, A is the area of the filter (0.3 cm^2), t is time in seconds, and Ceq=[CD(t)*VD+CA(t)*VA]/(VD+VA).

A further data set can be described thus: Cytotoxicity (Table 1). Format: cell-based.
Data set [5] is described as follows: Cytotoxicity screening in MRC5 (CellTiter Glo, fluorescence microscopy). In kind it is cell-based. The settings on record: human, MRC5 cells. The procedure:
To evaluate the cytotoxicity of selected compounds, cell viability assays (CellTiter Glo) were conducted. Each compound (compound 21 or compound 37) was plated in triplicate starting at their respective stock concentration. They were serially diluted column-wise for ten 3× dilutions using DMSO as the diluent. Staurosporine was used as positive control for DRC (dose response curve), and was plated starting at 1.25 mM. This plate was used as a source plate to make the assay plates by transferring 0.1 μl into 25 μl assay volume to reach the right working concentration for each compound. HepG2 and MRC5 were plated at a density of 1500 cells/25 μl in well in the assay plate and allowed to settle overnight. 0.1 μL of compounds was then transferred from the source plate, into the cell assay plates. The cells were left to incubate with the compounds for 48 hours, after which, 25 μL of Promega Cell Titer-Glo was added to each well, and allowed to incubate at room temperature with shaking for 20 minutes. RLU's (Relative Light Units) for each well were then recorded on a BioTek Synergy NEO. Fluorescence microscopy was also used to evaluate the cytotoxicity of selected compounds. Cells were plated at a density of 1500 cells/25 μl in well in a 384 wells plate the day before incubation with the drugs. The following day, 0.1 μl of the source plate are added to the assay plate. Then, 25 μl of a fluorophores mixture containing Hoechst 33342, Syto17 diluted in Eagle's Minimum Essential Medium (EMEM) was added to each well. Plates are read after 48 hours of incubation in the ImageXpress instrument (Molecular Devices) using the appropriate filters.

A short description of another data set: Plasma stability. Format: in vitro ADME. The following applies: C57BL/6; 10 μM in undiluted mouse plasma, 37° C., out to four hours; read-out: plasma stability (t1/2, mouse). The procedure: To evaluate the plasma stability of selected compounds, 10 μM of each selected compound was incubated with undiluted plasma. Plasma was freshly obtained from C57BBl\6 mice drawn in the vivarium and used immediately. Plasma was brought to 37° C. within a 96-well plate and then the compound is introduced via a DMSO stock solution. The sample was continually shaken at 37° C. and aliquots are removed at multiple time points out to four hours. Aliquots were added to acetonitrile (5× v:v) to stop any enzymatic activity and held on ice. At the end of the assay, the samples were centrifuged through a Millipore Multiscreen Solvinter 0.45 micron low binding PTFE hydrophilic filter plate and analyzed by LC-MS/MS. Data was log transformed and represented as half-life.

Setting [6] is: ip, read-out: PK (ip, 50 mg/kg) Area under the curve (AUC).
Setting [7] is: ip, read-out: PK (ip, 50 mg/kg) Cmax.
[8] abbreviates: ip, read-out: PK (ip, 50 mg/kg) t1/2 (converted).
Setting [9] is: po, read-out: PK (po, 50 mg/kg) AUC.
Setting [10] is: po, read-out: PK (po, 50 mg/kg) Cmax.
[11] abbreviates: po, read-out: PK (po, 50 mg/kg) t1/2 (converted).
The mark [12] stands for this setting: ip, single intraperitoneal dose.
The mark [13] stands for this setting: read-out: MRC5 IC50, Cell Count.
The mark [14] stands for this setting: read-out: MRC5 IC50, Cellular ATP.
Where [15] appears, read: read-out: MRC5 IC50, Membrane Integrity.

`CN(C)CC#Cc1cccc(-c2nc(C(=O)NCc3ccc4c(c3)OCO4)cc3c2[C@@H](CCO)N([S@+]([O-])C(C)(C)C)C3)c1` [compound 21, (R)-N-(Benzo[d][1,3]dioxol-5-ylmethyl)-2-((R)-tert-butylsulfinyl)-4-(3-(3-(dimethyl-amino)prop-1-yn-1-yl)phenyl)-3-(2-hydroxyethyl)-2,3-dihydro-1H-pyrrolo[3,4-c]pyridine-6-carboxamide]: the half-life at 1 μM in data set [1] stood at 3.9 min. Moreover, in data set [2], half-maximal inhibition (IC50) required 54 nM. Besides, in data set [3], the bioavailability was 48%. Besides, the AUC was 50.1 µM·h in data set [3] (setting [6]) and 24.3 µM·h in data set [3] (setting [9]). In addition, the Cmax was found to be 19.8 µM in data set [3] (setting [7]) and 11.8 µM in data set [3] (setting [10]). In addition, the half-life is 168 min in data set [3] (setting [8]) and 210 min in data set [3] (setting [11]). For the same compound, the Tmax was found to be 15 min in data set [3] (setting [12]) and 60 min in data set [3] (single oral dose). The “plasma concentrations quantifiable till” value in data set [3] (single intraperitoneal dose) and in data set [3] (single oral dose) was 24 h each time. Also, the Papp at 5 h in data set [4] was 0.055 ×10⁻⁶ cm/s. Further, the Cytotoxicity in “Cytotoxicity (Table 1)” was greater than 10 µM. Also, the 50% inhibitory concentration (IC50) at 48 h in data set [5] (setting [13]) came to 63.7 µM; in data set [5] (setting [14]), 44.7 µM; in data set [5] (setting [15]) it was 24.4 µM. Further, the half-life at 10 μM in the data set “Plasma stability” is greater than 240 min.
In the case of `CN(C)CC#Cc1cccc(-c2nc(C(=O)N[C@@H]3CCN(Cc4ccccc4)C3)cc3c2[C@@H](CCO)N([S@+]([O-])C(C)(C)C)C3)c1` [compound 37, (R)-N-((R)-1-Benzylpyrrolidin-3-yl)-2-((R)-tert-butylsulfinyl)-4-(3-(3-(dimethylamino)prop-1-yn-1-yl)phenyl)-3-(2-hydroxyethyl)-2,3-dihydro-1H-pyrrolo[3,4-c]pyridine-6-carboxamide], the half-life at 1 μM in data set [1] came to 1.3 min. In addition, half-maximal inhibition in data set [2] (IC50) was put at 48 nM. Also, the bioavailability in data set [3] was 47%. Further, the figures for the AUC in data set [3] (setting [6]) and in data set [3] (setting [9]) were 11.1 µM·h and 5.2 µM·h, respectively. The Cmax in data set [3] (setting [7]) was 6.8 µM; in data set [3] (setting [10]), 1.7 µM. In addition, the half-life is 378 min in data set [3] (setting [8]) and 258 min in data set [3] (setting [11]). Also, the Tmax came out at 15 min in data set [3] (setting [12]) and 60 min in data set [3] (single oral dose). Also, the “plasma concentrations quantifiable till” value in data set [3] (single intraperitoneal dose) and in data set [3] (single oral dose) was 24 h in each case. Besides, the Papp at 5 h in data set [4] is 5.75 ×10⁻⁶ cm/s. For the same compound, the Cytotoxicity in the data set “Cytotoxicity (Table 1)” is greater than 10 µM. Moreover, the IC50 at 48 h in data set [5] (setting [13]) is 64.2 µM; in data set [5] (setting [14]), 54.1 µM; in data set [5] (setting [15]) it was 13.4 µM. For the same compound, in the data set “Plasma stability”, the half-life at 10 μM is greater than 240 min.
